Experimental data as given in PMC4425367 (Journal of medicinal chemistry, 2015).
“Also recorded” adds a separate entry of the source.

What was measured:
hCB2 receptor = hCB2 receptor (Homo sapiens, UniProt P34972); test: cAMP assay, forskolin-stimulated cAMP in HEK293 cells expressing hCB2; assay type: cell-based; conditions: for classification hCB2: cAMP functional test
rCB1 receptor = rCB1 receptor (Rattus norvegicus, UniProt P20272); test: cAMP assay, forskolin-stimulated cAMP in HEK293 cells expressing rCB1; assay type: cell-based; conditions: cAMP functional test
Chain of rCB1 receptor (P20272 whole entry): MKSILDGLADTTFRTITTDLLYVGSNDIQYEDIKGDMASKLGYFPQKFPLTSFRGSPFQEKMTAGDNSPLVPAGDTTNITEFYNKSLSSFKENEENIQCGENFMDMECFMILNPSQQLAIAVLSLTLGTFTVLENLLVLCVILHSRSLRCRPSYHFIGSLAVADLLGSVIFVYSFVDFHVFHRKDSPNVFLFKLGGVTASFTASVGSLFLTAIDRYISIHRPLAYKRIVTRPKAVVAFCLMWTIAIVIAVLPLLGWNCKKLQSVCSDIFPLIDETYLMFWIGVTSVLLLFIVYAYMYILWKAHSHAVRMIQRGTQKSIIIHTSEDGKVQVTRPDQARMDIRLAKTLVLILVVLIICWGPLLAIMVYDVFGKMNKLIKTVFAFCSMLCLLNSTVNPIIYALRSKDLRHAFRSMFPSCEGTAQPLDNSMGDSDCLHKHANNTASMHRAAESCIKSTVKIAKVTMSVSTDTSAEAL

CB1 receptor = CB1 receptor (Rattus norvegicus, UniProt P20272); assay type: binding; conditions: 10Ki concentration, incubation extended to 60 min, compared with 30 min
Chain of CB1 receptor (P20272 whole entry): as above

Chain of hCB2 receptor (P34972 whole entry): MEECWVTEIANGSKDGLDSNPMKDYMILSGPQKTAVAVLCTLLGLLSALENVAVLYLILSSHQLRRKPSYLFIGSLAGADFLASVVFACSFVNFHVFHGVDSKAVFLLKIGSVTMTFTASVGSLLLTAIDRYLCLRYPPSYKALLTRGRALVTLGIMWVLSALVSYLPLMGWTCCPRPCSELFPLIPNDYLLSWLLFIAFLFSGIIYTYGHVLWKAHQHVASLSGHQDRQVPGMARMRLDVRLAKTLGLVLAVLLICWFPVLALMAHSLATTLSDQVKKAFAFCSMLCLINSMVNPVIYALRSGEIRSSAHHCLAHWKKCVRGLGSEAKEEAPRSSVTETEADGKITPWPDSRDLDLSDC

Row | SMILES | classification hCB2 (hCB2 receptor) | classification rCB1 (rCB1 receptor) | response of forskolin-stimulated cAMP accumulation, hCB2 (hCB2 receptor; HEK293 cells expressing hCB2, up to a 3 μM concentration) | CB1 covalent binding, 60 min incubation (CB1 receptor)
1 | CCCCCCC(C)(C)c1ccc([C@@H]2C[C@H](O)CC[C@H]2CCCO)c(O)c1 [CP-55,940, reference compound] | full agonist; also recorded: potent agonist |  |  | 
2 | CC1(C)Oc2cc([C@]34CC5CC(C[C@@](CN=C=S)(C5)C3)C4)cc(O)c2[C@@H]2C[C@H](O)CC[C@H]21 [Compound 16, (6aR,9R,10aR)-3-[(1r,3R)-3-(Isothiocyanatomethyl)-adamantan-1-yl]-6,6-dimethyl-6a,7,8,9,10,10a-hexahydro-6H-benzo[c]chromene-1,9-diol] | inverse agonist | potent agonists; also recorded: agonist |  | 
3 | CC1(C)Oc2cc([C@]34CC5CC(C[C@@](CN=[N+]=[N-])(C5)C3)C4)cc(O)c2[C@@H]2C[C@H](O)CC[C@H]21 [Compound 17, (6aR,9R,10aR)-3-[(1r,3R)-3-(Azidomethyl)adamantan-1-yl]-6,6-dimethyl-6a,7,8,9,10,10a-hexahydro-6H-benzo[c]-chromene-1,9-diol] | neutral antagonists | agonist | no response | 
4 | CC1(C)Oc2cc([C@]34CC5CC(C[C@@](N=C=S)(C5)C3)C4)cc(O)c2[C@@H]2C[C@H](O)CC[C@H]21 [Compound 19, (6aR,9R,10aR)-3-[(1r,3R)-3-Isothiocyanatoadamantan-1-yl]-6,6-dimethyl-6a,7,8,9,10,10a-hexahydro-6H-benzo[c]-chromene-1,9-diol] | neutral antagonists | potent agonists; also recorded: agonist |  | no further increase
5 | CC1(C)Oc2cc([C@]34CC5CC(C[C@@](N=[N+]=[N-])(C5)C3)C4)cc(O)c2[C@@H]2C[C@H](O)CC[C@H]21 [Compound 20, (6aR,9R,10aR)-3-[(1r,3R)-3-Azidoadamantan-1-yl]-6,6-di-methyl-6a,7,8,9,10,10a-hexahydro-6H-benzo[c]chromene-1,9-diol] | neutral antagonists | potent agonists; also recorded: agonist |  | 
6 | CC1(C)Oc2cc([C@]34CC5CC(C[C@@](CC#N)(C5)C3)C4)cc(O)c2[C@@H]2C[C@H](O)CC[C@H]21 [Compound 23, 2-{(1R,3r)-3-[(6aR,9R,10aR)-1,9-Dihydroxy-6,6-dimethyl-6a,7,8,9,10,10a-hexahydro-6H-benzo[c]chromen-3-yl]-adamantan-1-yl}acetonitrile] | inverse agonist | potent agonists; also recorded: agonist |  | 
7 | CC1(C)Oc2cc([C@]34CC5CC(C[C@@](C#N)(C5)C3)C4)cc(O)c2[C@@H]2C[C@H](O)CC[C@H]21 [Compound 25, (1R,3r)-3-[(6aR,9R,10aR)-1,9-Dihydroxy-6,6-dimethyl-6a,7,8,9,10,10a-hexahydro-6H-benzo[c]chromen-3-yl]-adamantane-1-carbonitrile] | inverse agonist | agonist |  | 
8 | COC(=O)N[C@]12CC3CC(C1)C[C@](c1cc(O)c4c(c1)OC(C)(C)[C@@H]1CC[C@@H](O)C[C@@H]41)(C3)C2 [Compound 26, Methyl {(1R,3r)-3-[(6aR,9R,10aR)-1,9-Dihydroxy-6,6-dimethyl-6a,7,8,9,10,10a-hexahydro-6H-benzo[c]chromen-3-yl]-adamantan-1-yl}carbamate] | inverse agonist | agonist |  | 
9 | CC1(C)Oc2cc(C34CC5CC(CC(C5)C3)C4)cc(O)c2[C@@H]2C[C@H](O)CC[C@H]21 [Compound 27, reference compound] |  | agonist |  | 
